Assay results reported in patent US20120003151A1, “METHOD FOR EARLY IMAGING OF ATHEROSCLEROSIS” (priority 2009, published 2012).

Legend:
[1] = molecular target: T1, folate receptor (Mus musculus, UniProt Q05685); test: Autoradiography and histology of aortas after EC20-99mTc injection; assay type: in vivo, mice; set-up: from tissue; host or cells: atherosclerotic aortas / aorto-cardiac region of living apoE-/- mice (lesion macrophages)
Procedure: In order to image areas of accumulation of EC20-^99mTc in atherosclerotic aortas, apoE−/− mice on a normal or Western diet were injected with EC20-^99mTc, euthanized, and thoracic aortas were excised. […] For cross sections, aortic roots and arches were cut and embedded in Tissue-Tek® O.C.T.™ mounting medium and frozen in liquid nitrogen. Serial sections were cut with a Leica CM1800 cryostat and placed on polylysine coated microscope slides (Thermo Scientific). Either whole aortas or aortic arch cross sections (40 μm) were exposed to a phosphor screen for 18 hours at 4° C. The phosphor screen was read using a Typhoon phosphorimager (GE Healthcare) at a resolution of 50 microns. Aortic tissue sections (10 m thick) adjacent to those used for autoradiography were also used for histology. H&E staining was performed to visualize lesion morphology. H&E staining of the sections was performed as follows.
The slides were fixed for 10 minutes in zinc-buffered formalin. The slides were washed with distilled water. The slides were immersed in Gills-3 hematoxylin for 5 minutes. The slides were rinsed in distilled water and dipped twice in acidic ethanol. The slides were rinsed for 30 seconds with distilled water and for 3 minutes in tap water. The slides were transferred to alcoholic Eosin Y for 20 seconds. The slides were rinsed with water and dehydrated in 2 changes of 95% ethanol, 2 changes of 100% ethanol, and 2 changes of xylenes (3 minutes per change). Coverslips were mounted using Permount™ mounting medium and allowed to dry overnight. Slides were visualized with a light microscope (4× objective). In some cases, the percentage of lumen occlusion was analyzed using ImageJ software (National Institutes of Health).
Staining with the macrophage-specific monoclonal antibody (Mac-3/CD107b; eBioscience Inc.) was performed as follows. Aortic arch sections were fixed with zinc-buffered formalin for 10 min, and endogenous biotin and peroxidase activity were blocked. Sections were incubated with anti-mouse CD107b antibody (1:50 dilution) for 1 h, and after washing, incubated with goat anti-rat biotinylated antibody (KPL Protein Research Products) at a 1:500 dilution for 30 min. After washing, streptavidin-HRP (BD Pharmingen) was added for an additional 30 min. Slides were developed with diaminobenzidine substrate (BD Pharmingen) according to manufacturer's instructions. Negative control consisted of slides developed in the absence of primary antibody. An Olympus BH-2 microscope coupled with a CCD camera was used to obtain light photomicrographs. […]

[2] = molecular target: T1, folate receptor; test: Radioimaging (gamma scintigraphy, ROI analysis) of EC20-99mTc in ApoE-/- mice; assay type: in vivo; set-up: from tissue; host or cells: atherosclerotic aortas / aorto-cardiac region of living apoE-/- mice (lesion macrophages)
Procedure: (§1) EC20-^99mTc was prepared as described (Leamon et al., Bioconjug Chem, 2002, 13(6): 1200-10; incorporated herein by reference). Vials containing lyophilized EC20 were heated at 100° C. for 5 min, after which two mL of a 925 MBq/mL solution of sodium pertechnetate (Cardinal Health) was added and the vial was heated for an additional 15 min. After dilution with the desired volume of saline, mice were injected i.p. with either 400 μL of imaging agent (18.5 MBq, ˜250 nmoles/Kg of EC20) or the same volume of imaging agent supplemented with 100-fold molar excess of free folic acid (to compete for unoccupied folate receptors). Unbound EC20-^99mTc was allowed to clear from the tissues for a period of four hours prior to imaging.

[3] = molecular target: T1, folate receptor
Procedure: as §1
To analyze the accumulation of EC20-^99mTc in mouse aortas and heart tissues, mice were euthanized and thoracic aortas excised. Radioactivities were counted for 2 min using a gamma-counter (Packard). Results are reported as % ID/g tissue.
In order to assess whether EC20-^99mTc is in fact targeting these regions of enhanced atherosclerosis, thoracic aortas and hearts were dissected, and accumulation of EC20-^99mTc in the resected tissues was quantitated by gamma counting.

[4] = test system: FR+ macrophages; test: EC20-99mTc imaging after macrophage depletion with clodronate liposomes; assay type: in vivo; details: apoE-/- mice, 8 weeks Western diet, 4 mg clodronate/dose i.p. daily for 5 days
Procedure: PBS- and clodronate liposomes were synthesized as described (Buiting et al., J. Immunol. Methods, 1996, 192(1-2): 55-62; incorporated herein by reference). 86 mg egg phosphatidylcholine +8 mg cholesterol were dissolved in 1:1 chloroform:methanol. Solvent was evaporated using a rotoevaporator for 15 min, and the resulting film was rehydrated with PBS or a 0.6 M solution of clodronate (Sigma) in PBS for 2 hours. Resulting multi-lamellar vesicles were sonicated for 3 min and allowed to swell for 2 hours at 25° C. Liposomes were washed 3× with PBS by centrifugation at 100,000×g for 30 min and resuspended in 4 mL PBS. Liposomes were extruded 5× through both a 400 nm and 200 nm pore-size polycarbonate filter and stored at 4° C. until use. The resulting liposomes consisted of 7:1.3 molar ratio egg phosphatidylcholine:cholesterol, respectively. The efficiency of clodronate entrapment using this method was 7.8%.
For systemic elimination of macrophages, apoE−/− mice were fed a Western diet for a period of 8 weeks, after which 200 μL of PBS- or clodronate-liposomes (4 mg clodronate/dose) were injected i.p. daily for 5 days. After treatment, mice were injected i.p. with EC20-^99mTc and imaged, as described above.

T1 sequence (Q05685 21-227): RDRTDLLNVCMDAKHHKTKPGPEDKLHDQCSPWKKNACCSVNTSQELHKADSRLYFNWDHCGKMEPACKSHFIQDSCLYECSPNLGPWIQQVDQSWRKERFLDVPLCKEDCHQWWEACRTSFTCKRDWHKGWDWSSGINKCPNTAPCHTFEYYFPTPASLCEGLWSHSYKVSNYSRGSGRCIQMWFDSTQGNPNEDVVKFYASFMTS

SMILES	radioactivity in the aortic root and arch with 100-fold greater dose of free folic acid ([1]; apoE-/- mice on Western diet, autoradiography)	correspondence of areas of high macrophage content and lesion formation with loci of elevated 99mTc emission ([1]; apoE-/- mice, 25 weeks Western chow, serial sections: H&E, Mac-3, autoradiography)	uptake in the aortic root and arch by autoradiography, Western diet versus normal diet ([1]; apoE-/- mice, whole aortas, phosphorimager)	signal intensity after pre-injection of 100-fold excess free folic acid ([2]; apoE-/- mice on Western diet, 25 weeks, folic acid competition)	average increase in EC20-99mTc signal intensity in the aorto-cardiac region, Western diet compared to normal rodent chow ([2]; apoE-/- mice, 25 weeks on diet, i.p., imaged after 4 h clearance) [%]	decrease of EC20-99mTc retention in the aortas by competition with excess folic acid ([3]; apoE-/- mice on Western diet, compared to non-competed controls) [%]	accumulation in the aortas, higher on Western chow than normal diet ([3]; apoE-/- mice, 25 weeks on diet, gamma counting) [%]	EC20-99mTc uptake in hearts relative to aortas ([3]; mouse, in vivo)	reduction of EC20-99mTc uptake by clodronate-liposome treatment relative to PBS-containing liposomes [4] [%]	detectability of EC20 uptake in small, early, active atherosclerotic plaques ([1]; ApoE-/- mice, Western Diet 0, 2, 12 or 26 weeks, H&E plaque size)
Nc1nc2ncc(CNc3ccc(C(=O)N[C@H](CCC(=O)NC[C@H](N)C(=O)N[C@@H](CC(=O)O)C(=O)N[C@@H](CS)C(=O)O)C(=O)O)cc3)nc2c(=O)[nH]1 [EC20-^99mTc, metal not drawn]	significantly reduced	invariably corresponded	significantly greater uptake	reduced to near background levels	~70	41	~120	threefold lower	65	–
Nc1nc2ncc(CNc3ccc(C(=O)N[C@H](CCC(=O)NC[C@H](N)C(=O)N[C@@H](CC(=O)O)C(=O)N[C@@H](CS)C(=O)O)C(=O)O)cc3)nc2c(=O)[nH]1 [EC20]	–	–	–	–	–	–	–	–	–	detectable
